In paper PMC10841072 (European journal of medicinal chemistry, 2023):
Each block holds one molecule with its values, some of them ahead of it.

Legend:
[1] = biological target: human D2 (long) expressed in HEK cells (Homo sapiens, UniProt P14416); experiment: Radioligand binding assay with [125I]IABN, D2R
[2] = biological target: human D3 expressed in HEK cells (Homo sapiens, UniProt P35462); experiment: Radioligand binding assay with [125I]IABN, D3R; conditions: for D2R/D3R selectivity, (Ki for D2R)/(Ki for D3R): ratio of Ki values
human D3 expressed in HEK cells, sequence (P35462 whole entry): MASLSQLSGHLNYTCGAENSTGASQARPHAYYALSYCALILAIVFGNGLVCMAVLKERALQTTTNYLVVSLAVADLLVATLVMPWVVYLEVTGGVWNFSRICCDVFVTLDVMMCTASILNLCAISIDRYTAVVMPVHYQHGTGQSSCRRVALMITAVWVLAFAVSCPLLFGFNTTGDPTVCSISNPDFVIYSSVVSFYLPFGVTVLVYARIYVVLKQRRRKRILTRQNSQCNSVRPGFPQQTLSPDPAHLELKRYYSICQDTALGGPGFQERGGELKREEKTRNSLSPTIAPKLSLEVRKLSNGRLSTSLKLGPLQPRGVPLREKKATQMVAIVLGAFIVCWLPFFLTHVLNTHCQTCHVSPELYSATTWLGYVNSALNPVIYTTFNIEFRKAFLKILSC

[3] = biological target: human D3 receptor over-expressed in CHO-K1 cells (Homo sapiens, UniProt P35462); experiment: PathHunter β-arrestin recruitment assay, competition with dopamine; assay type: cell-based; conditions: 30 nM (EC80) dopamine, Mean ± SEM, at least three experiments
human D3 receptor over-expressed in CHO-K1 cells, sequence (P35462 whole entry): as above

human D2 (long) expressed in HEK cells, sequence (P14416 whole entry): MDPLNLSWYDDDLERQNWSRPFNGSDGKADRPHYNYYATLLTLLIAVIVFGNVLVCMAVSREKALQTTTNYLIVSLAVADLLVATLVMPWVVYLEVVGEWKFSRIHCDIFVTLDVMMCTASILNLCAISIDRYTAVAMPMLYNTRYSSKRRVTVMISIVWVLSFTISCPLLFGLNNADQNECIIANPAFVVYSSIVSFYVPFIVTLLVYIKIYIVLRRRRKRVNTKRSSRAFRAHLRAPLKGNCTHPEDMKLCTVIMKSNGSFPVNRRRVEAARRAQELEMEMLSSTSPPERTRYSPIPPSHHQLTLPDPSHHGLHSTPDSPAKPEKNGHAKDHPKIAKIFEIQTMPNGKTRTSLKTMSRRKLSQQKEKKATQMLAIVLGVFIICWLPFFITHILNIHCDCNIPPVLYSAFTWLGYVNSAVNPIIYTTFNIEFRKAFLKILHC

Compound: C=CCN1C[C@@H](OCCCN)C[C@H]1CNC(=O)c1cc(CCCF)cc(OC)c1OC [Compound 40, N-(((2S,4S)-1-allyl-4-(3-aminopropoxy)pyrrolidin-2-yl)methyl)-5-(3-fluoropropyl)-2,3-dimethoxybenzamide]
Ki [1]: 16.9 ± 0.9 nM

Compound: C=CCN1C[C@H](OCCN)C[C@H]1CNC(=O)c1cc(CCCF)cc(OC)c1OC [Compound 35a, N-(((2S,4R)-1-allyl-4-(2-aminoethoxy)pyrrolidin-2-yl)methyl)-5-(3-fluoropropyl)-2,3-dimethoxybenzamide]
higher affinity for D3R versus D2R [2]: 11 fold

D2R/D3R selectivity, (Ki for D2R)/(Ki for D3R) [2]: modest
Compound: C=CCN1C[C@@H](OC(=O)Nc2ccc(-c3ccsc3)cc2)C[C@H]1CNC(=O)c1cc(CCCF)cc(OC)c1OC [Compound 41, (3S,5S)-1-allyl-5-((5-(3-fluoropropyl)-2,3-dimethoxybenzamido)methyl)pyrrolidin-3-yl (4-(thiophen-3-yl)phenyl)carbamate]

IC50 in β-arrestin recruitment assay (inhibiting dopamine) [3]: much lower potency
Compound: CCN1C[C@H](OC(=O)Nc2ccc(-c3ccsc3)cc2)C[C@H]1CNC(=O)c1cc(CCCF)cc(OC)c1OC [Compound 47, (3R,5S)-1-ethyl-5-((5-(3-fluoropropyl)-2,3-dimethoxybenzamido)methyl)pyrrolidin-3-yl (4-(thiophen-3-yl)phenyl)carbamate]

IC50 in β-arrestin recruitment assay (inhibiting dopamine) [3]: much lower potency
Compound: C=CCN1C[C@H](OC(=O)Nc2ccc(-c3ccsc3)cc2)C[C@H]1CNC(=O)c1cc(CCCF)cc(OC)c1OC [Compound 37l, (3R,5S)-1-allyl-5-((5-(3-fluoropropyl)-2,3-dimethoxybenzamido)methyl)pyrrolidin-3-yl (4-(thiophen-3-yl)phenyl)carbamate]

D2R/D3R selectivity, (Ki for D2R)/(Ki for D3R) [2]: higher affinity for D2R versus D3R
Compound: C=CCN1C[C@H](OC(=O)Nc2ccoc2)C[C@H]1CNC(=O)c1cc(CCCF)cc(OC)c1OC [Compound 37h, (3R,5S)-1-allyl-5-((5-(3-fluoropropyl)-2,3-dimethoxybenzamido)methyl)pyrrolidin-3-yl furan-3-ylcarbamate]

IC50 in β-arrestin recruitment assay (inhibiting dopamine) [3]: much lower potency
Compound: C=CCN1C[C@H](OC(=O)Nc2ccc(-c3ccccn3)cc2)C[C@H]1CNC(=O)c1cc(CCCF)cc(OC)c1OC [Compound 37k, (3R,5S)-1-allyl-5-((5-(3-fluoropropyl)-2,3-dimethoxybenzamido)methyl)pyrrolidin-3-yl (4-(pyridin-2-yl)phenyl)carbamate]
